# In patent publication US4912223A, “1,4-Dihydropyridines” (Nelson Research & Development Co., priority 1988, dated 1990):
# pKi: −log10 of the molar value. Structures can show the parent of a compound that is named as a salt.
# What was measured:
# [1] = target: T1, DHP Site of the Calcium Channel (Oryctolagus cuniculus, UniProt P07293); assay: Binding Assay for Drugs Acting at the DHP Site of the Calcium Channel (3H-nitrendipine displacement); settings: washed rabbit skeletal muscle membranes, 0.5×10^-9 M 3H-nitrendipine, 30 min, 25° C., pH 7.4
# T1 construct: Washed rabbit skeletal muscle membranes (fraction 2-8X); from tissue; host or cells: rabbit skeletal muscle membranes (fraction 2-8X)
# T1 sequence (P07293 1-1664 limits assumed): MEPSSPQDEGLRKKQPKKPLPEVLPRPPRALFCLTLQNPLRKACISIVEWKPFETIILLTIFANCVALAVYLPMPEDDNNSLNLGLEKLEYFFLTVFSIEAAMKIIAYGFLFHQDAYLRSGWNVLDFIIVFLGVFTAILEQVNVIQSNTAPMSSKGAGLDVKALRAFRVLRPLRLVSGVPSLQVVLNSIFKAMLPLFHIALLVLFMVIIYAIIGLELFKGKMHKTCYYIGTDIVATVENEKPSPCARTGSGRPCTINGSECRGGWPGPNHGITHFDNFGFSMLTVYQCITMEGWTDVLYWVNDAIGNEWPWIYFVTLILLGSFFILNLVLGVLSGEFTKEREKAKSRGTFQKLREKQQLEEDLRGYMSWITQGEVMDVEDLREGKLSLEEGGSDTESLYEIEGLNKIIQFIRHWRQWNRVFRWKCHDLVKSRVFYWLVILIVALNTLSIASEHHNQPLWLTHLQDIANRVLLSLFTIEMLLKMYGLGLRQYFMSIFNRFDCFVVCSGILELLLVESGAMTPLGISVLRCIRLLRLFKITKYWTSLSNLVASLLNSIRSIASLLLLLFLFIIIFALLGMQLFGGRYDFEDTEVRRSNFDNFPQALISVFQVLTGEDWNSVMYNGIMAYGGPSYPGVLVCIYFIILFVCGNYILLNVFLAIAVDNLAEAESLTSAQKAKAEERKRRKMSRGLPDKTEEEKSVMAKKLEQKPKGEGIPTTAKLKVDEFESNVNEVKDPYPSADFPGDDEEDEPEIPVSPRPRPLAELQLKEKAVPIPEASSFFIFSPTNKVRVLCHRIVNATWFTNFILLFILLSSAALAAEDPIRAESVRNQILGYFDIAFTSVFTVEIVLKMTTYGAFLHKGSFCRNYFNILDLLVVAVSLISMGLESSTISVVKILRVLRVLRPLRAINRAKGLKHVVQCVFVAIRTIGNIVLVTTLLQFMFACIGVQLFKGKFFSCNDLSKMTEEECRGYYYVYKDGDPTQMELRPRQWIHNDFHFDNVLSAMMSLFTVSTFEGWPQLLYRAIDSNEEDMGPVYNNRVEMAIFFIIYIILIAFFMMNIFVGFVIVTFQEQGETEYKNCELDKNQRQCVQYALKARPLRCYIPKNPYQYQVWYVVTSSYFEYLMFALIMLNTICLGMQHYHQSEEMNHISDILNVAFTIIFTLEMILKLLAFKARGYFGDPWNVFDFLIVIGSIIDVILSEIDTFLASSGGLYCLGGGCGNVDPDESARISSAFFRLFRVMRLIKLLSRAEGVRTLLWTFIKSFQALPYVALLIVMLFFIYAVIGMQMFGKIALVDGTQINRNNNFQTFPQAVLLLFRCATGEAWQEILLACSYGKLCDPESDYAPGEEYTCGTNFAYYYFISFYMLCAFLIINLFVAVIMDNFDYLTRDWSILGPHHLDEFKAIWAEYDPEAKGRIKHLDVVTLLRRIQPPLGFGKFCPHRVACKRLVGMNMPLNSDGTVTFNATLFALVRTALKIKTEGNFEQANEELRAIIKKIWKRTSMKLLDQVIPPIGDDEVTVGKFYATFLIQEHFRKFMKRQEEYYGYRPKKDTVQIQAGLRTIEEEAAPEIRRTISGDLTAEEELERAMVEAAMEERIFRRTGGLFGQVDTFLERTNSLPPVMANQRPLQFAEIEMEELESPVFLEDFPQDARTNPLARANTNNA
# T1 sequence (P13806 27-960 partner limits assumed): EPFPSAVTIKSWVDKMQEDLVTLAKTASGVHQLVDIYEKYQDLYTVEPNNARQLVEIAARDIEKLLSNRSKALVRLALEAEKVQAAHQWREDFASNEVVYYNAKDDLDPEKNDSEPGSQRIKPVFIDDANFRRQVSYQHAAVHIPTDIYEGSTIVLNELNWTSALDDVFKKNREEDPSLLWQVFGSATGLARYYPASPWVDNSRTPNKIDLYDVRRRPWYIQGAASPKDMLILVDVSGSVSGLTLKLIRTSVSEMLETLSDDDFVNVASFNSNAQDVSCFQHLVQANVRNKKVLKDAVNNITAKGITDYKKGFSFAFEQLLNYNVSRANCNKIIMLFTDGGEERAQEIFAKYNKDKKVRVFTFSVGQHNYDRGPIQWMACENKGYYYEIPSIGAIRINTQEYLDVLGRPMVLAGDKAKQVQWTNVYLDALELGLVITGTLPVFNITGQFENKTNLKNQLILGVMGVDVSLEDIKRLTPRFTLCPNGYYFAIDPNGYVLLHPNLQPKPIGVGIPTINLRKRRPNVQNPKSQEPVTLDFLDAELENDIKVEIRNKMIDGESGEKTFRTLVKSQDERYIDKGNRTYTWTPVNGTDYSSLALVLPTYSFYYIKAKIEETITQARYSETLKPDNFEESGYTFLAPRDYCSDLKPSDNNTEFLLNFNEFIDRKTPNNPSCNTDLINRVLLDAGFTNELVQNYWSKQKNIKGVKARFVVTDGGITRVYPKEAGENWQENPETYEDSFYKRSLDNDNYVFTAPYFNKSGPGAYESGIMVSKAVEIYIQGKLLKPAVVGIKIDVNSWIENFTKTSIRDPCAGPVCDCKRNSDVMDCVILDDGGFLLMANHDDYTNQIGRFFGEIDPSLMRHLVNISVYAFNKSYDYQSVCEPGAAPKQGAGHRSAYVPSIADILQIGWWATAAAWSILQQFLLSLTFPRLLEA
# T1 sequence (P13806 961-1106 partner limits assumed): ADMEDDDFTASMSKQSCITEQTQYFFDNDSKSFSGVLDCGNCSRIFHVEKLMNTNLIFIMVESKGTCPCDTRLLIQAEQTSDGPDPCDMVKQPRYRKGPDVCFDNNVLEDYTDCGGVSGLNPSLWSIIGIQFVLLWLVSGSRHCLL
# T1 sequence (P19517 whole entry partner): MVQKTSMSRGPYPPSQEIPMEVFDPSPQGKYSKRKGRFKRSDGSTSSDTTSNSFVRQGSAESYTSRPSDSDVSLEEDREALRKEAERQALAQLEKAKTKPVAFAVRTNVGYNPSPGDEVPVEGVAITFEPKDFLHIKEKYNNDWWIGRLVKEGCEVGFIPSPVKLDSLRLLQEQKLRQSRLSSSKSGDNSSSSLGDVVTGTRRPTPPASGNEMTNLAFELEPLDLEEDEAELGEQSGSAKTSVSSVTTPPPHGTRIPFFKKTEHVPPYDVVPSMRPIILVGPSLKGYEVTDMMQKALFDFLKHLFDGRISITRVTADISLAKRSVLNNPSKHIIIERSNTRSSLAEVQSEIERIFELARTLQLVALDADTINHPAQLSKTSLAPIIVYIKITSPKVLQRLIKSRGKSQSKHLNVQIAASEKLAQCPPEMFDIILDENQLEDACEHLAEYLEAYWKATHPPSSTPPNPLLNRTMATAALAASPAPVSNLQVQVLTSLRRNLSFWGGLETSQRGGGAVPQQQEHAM
# T1 sequence (P19518 whole entry partner): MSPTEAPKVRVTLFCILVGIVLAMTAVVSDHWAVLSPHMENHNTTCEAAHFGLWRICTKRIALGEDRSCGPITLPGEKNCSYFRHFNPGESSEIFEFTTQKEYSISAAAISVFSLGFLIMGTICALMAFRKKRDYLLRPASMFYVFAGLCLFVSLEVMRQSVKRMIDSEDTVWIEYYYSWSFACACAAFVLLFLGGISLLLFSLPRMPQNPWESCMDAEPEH
# Description: The incubation tubes were rapidly chilled in ice and the contents filtered through Whatman GF/B filters on a Millipore manifold, and the filters were placed in scintillation counting vials with 8 ml of Cytoscint cocktail, disrupted mechanically by shaking for 30 minutes and counted.
# Drugs which interact at the DHP site will reduce this specific binding in a dose-dependent manner. The assays for the compounds of this invention were made with logarithmically spaced concentrations, the data were plotted on a probit-concentration plot, and the IC50 read off. The KI of the drug was calculated by standard techniques.
# [2] = system: Systolic arterial blood pressure; assay: Hypotensive Activity (oral), indirect tail cuff method in spontaneous hypertensive rats (SHR); type: in vivo, spontaneous hypertensive rates (SHR); settings: 10 mmol/Kg in polyethylene glycol
# Description: Systolic arterial blood pressure was measured with the indirect tail cuff method in spontaneous hypertensive rates (SHR). The change in baseline pressure (170-210 mm Hg) was recorded at various time points following oral administration of 10 mmol/Kg of the test compound in polyethylene glycol.
# [3] = Water solubility of salt (dissolution in aqueous NaOH, freeze-dried); type: physicochemical
# Description: A suspension of 50 mg (0.099 mmol) of the product of Example 2C in 30 ml of water and 1.0 ml (0.099 ) of 0.1N NaOH was stirred at ambient temperature for 15 hours.
# All material was dissolved at this time. The mixture was freeze-dried to give 50 mg (quantitative yield) of a foamy water soluble solid: m.p. 215°-220° C.
# A suspension of 50 mg (0.076 mmol) of the product of Example 6 in 30 ml of water and 1.52 ml (0.152 mmol) of 0.1N NaOH was stirred at ambient temperature for 15 hours. The material was totally dissolved at this time. The mixture was freeze dried to give 50 mg (quantitative yield) of a foamy water-soluble solid: m.p. 225°-232° C.
SMILES,pKi [1],solubility in water (in words) [3],"Mean Change (Decrease) in Systolic Blood Pressure, 120 min after drug administration [2] [mm Hg]","Mean Change (Decrease) in Systolic Blood Pressure, 240 min after drug administration [2] [mm Hg]","Mean Change (Decrease) in Systolic Blood Pressure, 360 min after drug administration [2] [mm Hg]","Mean Change (Decrease) in Systolic Blood Pressure, 12 min after drug administration [2] [mm Hg]","Mean Change (Decrease) in Systolic Blood Pressure, 30 min after drug administration [2] [mm Hg]","Mean Change (Decrease) in Systolic Blood Pressure, 60 min after drug administration [2] [mm Hg]"
"COC(=O)C1=C(C)NC(C)=C(C(=O)OCC(O)CO)C1c1cccc([N+](=O)[O-])c1 (stereo not drawn) [Example 4, 2,6-Dimethyl-5-carbomethoxy-4-(3-nitrophenyl)-3-(2,3 dihydroxycarbopropoxy)-1,4-dihydropyridine]",6.85,–,12,6,4,13,16,18
"CC1=C(C(=O)OCC2COC(C)(C)O2)C(c2cccc([N+](=O)[O-])c2)C(C(=O)OCC2COC(C)(C)O2)=C(C)N1 (stereo not drawn) [Example 5, 2,6-Dimethyl-3,5-di-(2,2-dimethyl-1,3-dioxolan-4-carbomethoxy)-4-(3-nitrophenyl)-1,4-dihydropyridine]",7.54,–,17,19,19,17,19,13
"CC1=C(C(=O)OCC2OC(=O)C3OC(C)(C)OC23)C(c2cccc([N+](=O)[O-])c2)C(C(=O)OCC2OC(=O)C3OC(C)(C)OC23)=C(C)N1 (stereo not drawn) [Example 6, 2,6-Dimethyl-3,5-di(carboriboxy-gamma-lactone dimethylketal)-4-(3-nitrophenyl)-1,4-dihydropyridine]",7.03,–,–,–,–,–,–,–
"COC(=O)C1=C(C)NC(C)=C(C(=O)OCC(O)C2OC(C)(C)OC2C(=O)O)C1c1cccc([N+](=O)[O-])c1 (stereo not drawn) [Example 11, 2,6-Dimethyl-3-(carboribonic acid-gamma-lactone dimethylketal)(3-nitrophenyl)-5-(carbomethoxy)-1,4-dihydropyridine, sodium salt]",–,water soluble,–,–,–,–,–,–
"CC1=C(C(=O)OCC(O)C2OC(C)(C)OC2C(=O)O)C(c2cccc([N+](=O)[O-])c2)C(C(=O)OCC(O)C2OC(C)(C)OC2C(=O)O)=C(C)N1 (stereo not drawn) [Example 13, 2,6-Dimethyl-3,5-di-(carboribonic acid-gamma-lactone dimethylketal)-4-(3-nitrophenyl-1,4-dihydropyridine, disodium salt]",–,water-soluble,–,–,–,–,–,–
"COC(=O)C1=C(C)NC(C)=C(C(=O)OC)C1c1ccccc1[N+](=O)[O-] [Nifedipine, nifedipine, reference compound]",–,–,11,–,–,6,36,20

# Continued, in another order:
pKi [1],solubility in water (in words) [3],SMILES,"Mean Change (Decrease) in Systolic Blood Pressure, 120 min after drug administration [2] [mm Hg]","Mean Change (Decrease) in Systolic Blood Pressure, 240 min after drug administration [2] [mm Hg]","Mean Change (Decrease) in Systolic Blood Pressure, 360 min after drug administration [2] [mm Hg]","Mean Change (Decrease) in Systolic Blood Pressure, 12 min after drug administration [2] [mm Hg]","Mean Change (Decrease) in Systolic Blood Pressure, 30 min after drug administration [2] [mm Hg]","Mean Change (Decrease) in Systolic Blood Pressure, 60 min after drug administration [2] [mm Hg]"
8.35,–,"COC(=O)C1=C(C)NC(C)=C(C(=O)OCC2COC(C)(C)O2)C1c1cccc([N+](=O)[O-])c1 (stereo not drawn) [Example 1B, 2,6-Dimethyl-3-(2,2-dimethyl-1,3-dioxolan-4-carbomethoxy)-4-(3-nitrophenyl)-5-carbomethoxy-1,4 dihydropyridine]",36,34,19,–,–,–
7.52,–,"COC(=O)C1=C(C)NC(C)=C(C(=O)OCC2OC(=O)C3OC(C)(C)OC23)C1c1cccc([N+](=O)[O-])c1 (stereo not drawn) [Example 2C, 2,6-Dimethyl-3-(carboriboxy-gamma-lactone dimethylketal)-4-(3-nitrophenyl)-5-carbomethoxy-1,4-dihydropyridine]",29,22,20,40,37,31
8.64,–,"COC(=O)C1=C(C)NC(C)=C(C(=O)OCC2COC3(CCCC3)O2)C1c1cccc([N+](=O)[O-])c1 (stereo not drawn) [Example 4B, 2,6-Dimethyl-5-carbomethoxy-4-(3-nitrophenyl)-3-(1,4-dioxaspiro[4,4]non-2-yl-carbomethoxy)-1,4-dihydropyridine]",17,23,27,–,–,–
